Results as given in PMC9422153, “A novel antibiotic combination of linezolid and polymyxin B octapeptide PBOP against clinical Pseudomonas aeruginosa strains” (Annals of Clinical Microbiology and Antimicrobials, 2022).
Bridge positions count the residues as written; N and C are the ends. Square brackets hold non-standard residues; d marks the D form. Peptide text beside a SMILES is read from it. Dab = NCC[C@H](N)C(=O)O

Experiments:
[1] = system: C. elegans infected with PA14; assay: C. elegans infection model; format: in vivo, Caenorhabditis elegans; conditions: PA14 infection on SK plate, linezolid 8 μg/mL, PBOP 16 μg/mL
Procedure: To determine the protective effect of LP, all groups of C. elegans were infected with PA14 in slow killing (SK) agar plate and were treated with PBS, linezolid (8 μg/mL), PBOP (16 μg/mL) or LP. The mortality of the infected C. elegans was evaluated for 7 days. […] The bacterial loads inside the C. elegans were counted at 12 h or 24 h post-infection as previously described. Briefly, the infected nematodes were mixed with silicon carbide particles and vortexed at maximum speed for one minute. The resulting suspension was serially diluted and plated on a selective agar plate to determine the bacterial CFU. This experiment was performed in triplicate.

P. aeruginosa PA14 = format: cell-based, Pseudomonas aeruginosa
Procedure: Synergistic effect of the 6 polymyxin B or polymyxin E derivatives in combination with 5 conventional antibacterial agents was detected using the checkerboard method as described on the previous study. Briefly, the serial concentrations of test compounds were prepared by a two-dimensional array. The tested dilutions were based on the MICs of the two different compounds. The fractional inhibitory concentration index (FIC) was applied to illuminate the checkerboard test based on formulas as follows: FIC Index = […] = MICA+B/MICA, and FICB = MICB+A/MICB. The value of MICA+B is indicated as the MIC value of Compound A with Compound B, and equally for MICB+A. […] The experiments were repeated in triplicate.

PA2 = assay: Time-kill assay, bacterial burdens in vitro; format: cell-based, Pseudomonas aeruginosa; conditions: PA2, 1 × 10^5 CFU in 96-well plates; 1 h, 6 h, 12 h, 24 h; LP compared to single-treated groups
Procedure: (§1) To explore the antibacterial activity of LP combination in the P. aeruginosa in vitro, PA14 were cultured in 96-well plates and were treated with PBS, linezolid, PBOP or LP for 1 h, 6 h, 12 h, and 24 h.
(§2) A1–A4 1 × 10^5 CFU of PA14 were seeded in 96-well plates and treated with PBS, linezolid, PBOP or combination of linezolid and PBOP (LP) for 1 h (A1), 6 h (A2), 12 h (A3), and 24 h (A4). The bacteria burdens on the LB agar plates were counted. B1–B4 1 × 10^5 CFU of PA2 were seeded in 96-well plates and treated with PBS, linezolid, PBOP or LP for 1 h (B1), 6 h (B2), 12 h (B3), and 24 h (B4). C1–C4 1 × 10^5 CFU of PAB41 were seeded in 96-well plates and treated with PBS, linezolid, PBOP or LP for 1 h (C1), 6 h (C2), 12 h (C3), and 24 h (C4). The bacteria burdens were determined as described above.

PAB41 = assay: Time-kill assay, bacterial burdens in vitro; format: cell-based, Pseudomonas aeruginosa; conditions: PAB41, 1 × 10^5 CFU in 96-well plates; 1 h, 6 h, 12 h, 24 h; LP compared to single-treated groups
Procedure: as §1, §2

[2] = system: all tested P. aeruginosa strains; format: cell-based, Pseudomonas aeruginosa; conditions: 24 h
Procedure: The MICs (minimal inhibitory concentrations) were determined for different P. aeruginosa strains using micro-dilution method, with a concentration of 1 × 10^5 CFU/mL on LB broth for 24 h, according to the published procedures. The experiment was carried out in three repeats.

## CC(C)C[C@@H]1NC(=O)[C@@H](Cc2ccccc2)NC(=O)[C@H](CCN)NC(=O)[C@@H](NC(=O)[C@@H](N)CCN)CCNC(=O)[C@H]([C@@H](C)O)NC(=O)[C@H](CCN)NC(=O)[C@H](CCN)NC1=O [PBOP, polymyxin B octapeptide] (H-[Dab][Dab][Dab][dF]L[Dab][Dab]T; lactam 2-C (inferred); N-terminus assumed)
[1]; 12 h and 24 h post infection
  bacterial loads inside C. elegans: a great number of bacteria were detected
[1]; monitored 7 days
  survival of infected C. elegans: died at day 3
P. aeruginosa PA14
  FIC (lowest FIC Index) combined with Erythromycin: 0.156
  FIC (lowest FIC Index) combined with Lincomycin: 0.094
  FIC (lowest FIC Index) combined with Linezolid: 0.078
  FIC (lowest FIC Index) combined with Nisin: 0.313
  FIC (lowest FIC Index) combined with Vancomycin: 0.156
PA2
  bacterial CFU / bactericidal activity: no remarkably bactericidal activity
PAB41
  bacterial CFU / bactericidal activity: no remarkably bactericidal activity
[2]
  MIC: over 256 µg/mL
